Experimental data taken from patent US5633003A, “Use of intratracheally administered hyaluronic acid to ameliorate emphysema” (priority 1994, dated 1997).
Entries after “also recorded” stand apart in the source; their conditions may differ.

Legend:
[1] = test system: elastase-induced emphysema; test: Hyaluronic acid-elastase model, mean linear intercept measurement of air-space size; type: in vivo, Syrian hamsters; settings: 1 week
Description: (§1) To test the possibility that addition of hyaluronic acid may inhibit air-space enlargement, Syrian hamsters were instilled with elastase intratracheally, then immediately given 1 mg of bovine tracheal hyaluronic acid by the same route. Controls received elastase followed by saline alone. Changes in air-space size were evaluated one week later, using the mean linear intercept method (8). To determine whether hyaluronic acid has elastase inhibitory capacity, it was incubated with pancreatic elastase in the presence of ^3 H-elastin. Controls contained elastase and ^3 H-elastin alone.
Following intratracheal administration of 20 units of pancreatic elastase (see above procedure), hamsters immediately received, by the same route, 1 mg of bovine tracheal hyaluronic acid (Sigma Chemical Co., St. Louis, Mo.), dissolved in 0.2 ml of saline solution.

[2] = test system: elastase-induced emphysema; test: Hyaluronidase-elastase model, mean linear intercept measurement of air-space size; type: in vivo, Syrian hamsters
Description: To determine the effects of hyaluronidase on elastase-induced emphysema, Syrian hamsters received intratracheal instillments of bovine testicular hyaluronidase and, 24 hours later, porcine pancreatic elastase. Controls received: 1) saline followed by elastase, 2) elastase followed by hyaluronidase, and 3) saline followed by saline. Air-space enlargement was measured one week later, using the mean linear intercept method (8). Changes in lung elastin content were determined at 24 and 48 hours by quantifying elastin-specific desmosine and isodesmosine cross-links.
Female Syrian hamsters, weighing approximately 100 gms each, were anesthetized by intramuscular injection of ketamine hydrochloride (10 mg in 0.1 ml). The animals were then placed on a rodent surgical table (Harvard Bioscience, South Natick, Mass.) and restrained with elastic bands. The neck fur was shaved with a scalpel and a 2-cm vertical incision was made through the skin and subcutaneous fat. The underlying muscle was then cut to expose the trachea. A 26-gauge needle mounted on a 1-ml syringe was placed inside the tracheal lumen and 900 unite of highly purified bovine testicular hyaluronidase (Sigma Chemical Co., St. Louis, Mo.), dissolved in 0.3 ml normal saline solution, were delivered to the lungs in small increments. Twenty-four hours later, 20 units of porcine pancreatic elastase (Elastin Products, Pacific, Mo.), dissolved in 0.2 ml saline solution, were instilled by the same method. The incision was then closed with several sutures.

[3] = test system: lungs; settings: hamster, in vivo
Description: One week after completion of the enzyme instillments, the hamsters were sacrificed by intraperitoneal injection of chloral hydrate. Their lungs were then fixed in-situ by inserting a catheter into the tracheas and allowing 10% neutral-buffered formalin to inflate the tissues at a pressure of 20 cm H2 O. Two hours later, the catheter was removed and the trachea was tied off to minimize deflation. both the lungs and heart were removed from the chest as a single block and additionally fixed in 10% formalin for several days. The lungs were then dissected free of extrapulmonary structures, sectioned randomly, and entirely submitted for histological processing.

[4] = test system: pancreatic elastase; test: Measurement of elastase inhibitory capacity of hyaluronic acid (release of radioactivity from 3H-elastin); type: biochemical, porcine; settings: 1, 10, 100 μg hyaluronic acid, 1 μg elastase, pH 8.0, 37° C., 22 hours, preincubated with elastase or 3H-elastin
Description: as §1
Various amounts of hyaluronic acid (1,10,100 μg) were incubated with pancreatic elastase (1 μg) and ^3 H-elastin in 0.2M Tris buffer, pH 8.0, at 37° C. for 22 hours (7,10). Hyaluronic acid was preincubated with either elastase or ^3 H-elastin for 10 minutes prior to the start of the assay. This was done to allow for the possible binding of one component to another. Following incubation, the samples were filtered, combined with scintillation fluid, and measured for radioactivity. The results were adjusted for nonspecific release of radioactivity and expressed as net counts per minute.

[5] = test system: 3H-elastin; settings: incubation with 3H-elastin; cited from earlier work
[6] = test system: lung air-space; settings: hyaluronidase alone; cited from earlier work

elastase: porcine pancreatic elastase (Elastin Products), used to induce emphysema
mean linear intercept (air-space size) ([1]; elastase followed immediately by saline (model control)): 122 um | mean linear intercept value ([2]; saline followed 24 hours later by elastase 20 units (model control), 1 week): 100 um

hyaluronic acid
mean linear intercept (air-space size) ([1]; 1 mg hyaluronic acid intratracheally immediately after 20 units elastase, control elastase then saline 122 um): 82 um | air-space enlargement ([1]; hyaluronic acid intratracheally immediately after elastase, vs elastase followed by saline): significantly reduced the amount of air-space enlargement; also recorded: marked decrease in air-space enlargement; also recorded: marked reduction in air-space enlargement | histological changes of the lungs [3]: No specific changes | pancreatic elastase activity (release of radioactivity from 3H-elastin) [4]: no elastase inhibitory capacity; also recorded: did not reduce ^3 H-elastin breakdown, but instead caused a marked increase in the release of radioactivity; also recorded: does not prevent elastin from being degraded by elastase in-vitro | pancreatic elastase activity (release of radioactivity from 3H-elastin) ([4]; listed as Hyaluronic acid): enhanced, rather than inhibited, pancreatic elastase activity

hyaluronidase
mean linear intercept value ([2]; elastase followed by hyaluronidase (reversed order), 1 week): 95.3 um | mean linear intercept value ([2]; hyaluronidase 900 units intratracheally 24 hours prior to elastase, 1 week): 128 um | effect of hyaluronidase on air-space enlargement ([2]; order of enzyme administration reversed (elastase then hyaluronidase)): abolished this effect; also recorded: extinguished | elastase-induced air-space enlargement ([2]; pre-treatment with hyaluronidase, then elastase, 1 week): significantly increased elastase-induced air-space enlargement; also recorded: markedly enhanced | elastase activity of the hyaluronidase preparation [5]: no elastase activity | air-space dilation [6]: does not cause significant air-space dilation
